Reference: patent US11110067B2 (THE BOARD OF REGENTS OF THE UNIVERSITY OF TEXAS SYSTEM, priority 2008, dated 2021)

Experiments:
[1] = test system: genetically heterogeneous mice; assay: Lifespan of mice fed test agents in the diet (Cohort 2005; rapamycin from 600 days of age); settings: for Survival compared with controls: added to the diet at 4 months of age, enalapril 120 mg/kg food, CAPE 30 or 300 mg/kg food; for Effect size expressed as life expectancy at 600 days / Effect size expressed as mean lifespan: pooled data set
Text: Mice were produced at each of the three test sites by mating CB6F1 females with C3D2F1 males to produce a genetically heterogeneous population. […] Each test site enrolled approximately equal numbers of 19-21 day-old weanlings each month over a six month period, housing 3 males or 4 females/cage. Each site used diets that the manufacturer claimed were based on the NIH-31 standard for breeding cages and the period between weaning and the initiation of experimental diets, as follows: For breeding cages, UM used Purina 5008, UT used Teklad 7912, and TJL used Purina 5K52. For weanlings prior to 4 months of age, UM used Purina 5008, UT used Teklad 7912, and TJL used Purina 5LG6. Starting when 4 months old, mice in the Control, Enalapril, and CAPE groups received Purina 5LG6 at all three sites, without additives (control group) or with the test agent. […] The principal endpoint was age at death (for mice found dead at daily inspections) or age at euthanasia (for mice deemed unlikely to survive for more than an additional 48 h).
The Cohort 2005 study population, distributed almost equally among the three test sites, consisted initially of 1960 mice, of which 674 were assigned to the control group and 317 to 328 to each of the four treatment groups. Of these, 51 mice were removed from the study because of fighting (31 mice), accidental death (such as chip implantation or cage flooding; 13 mice), or because of technical error (error in gender assignment or diet selection; 7 mice). For survival analyses, mice were treated as alive at the date of their removal from the protocol, and lost to follow-up thereafter. These censored mice were not included in calculations of median longevity.
Mice were examined at least daily for signs of ill health, and were euthanized for humane reasons if they were so severely moribund that they were considered, by an experienced technician, unlikely to survive for more than an additional 48 hrs. […] The age at which a moribund mouse was euthanized was taken as the best available estimate of its natural lifespan. Mice found dead were also noted at each daily inspection.
TestDiet, Inc. (Richmond, Ind.) prepared batches of Purina 5LG6 food containing each of the test substances, as well as control diet batches, at intervals of approximately 120 days, and shipped each batch of food at the same time to each of the three test sites. Enalapril was purchased from Sigma (catalogue E6888-5G) and used at 120 mg per kg food; on the assumption that the average mouse weighs 30 gm and consumes 5 gm of food/day, this dose supplies 20 mg enalapril per kg body weight/day. CAPE, i.e. caffeic acid phenethyl ester, was purchased from Cayman (Ann Arbor, Mich.; Catalogue 70750), and used at either of two doses: the high dose was 300 mg/kg food (50 mg/kg body weight/day), and the low dose was 30 mg/kg food (5 mg/kg body weight/day).

HET3 mice = assay: Glucose tolerance on high fat diet; format: in vivo, mouse; settings: HET3 mice fed a high fat diet
[2] = Pong and Zaleska, 2003; cited from earlier work
[3] = test system: Aβ / APP in brains of 3×Tg-AD mice; assay: APP Western blots, Aβ ELISA and immunohistochemistry in brain, 3xTg-AD mice; format: in vivo, mouse; settings: ELISA
Procedure: (§1) Tissue was processed and analyzed as described previously 13, 25, 26 and is described in detail in Supplementary Information. Aβ and tau were measured using specific ELISAs.
3×Tg-AD mice were sacrificed by CO2 asphyxiation. The brains were extracted and cut in-half sagitally and tissue was processed as described (Oddo et al., 2008). The hAPP(J20) mice were euthanized by isoflurane overdose. Hemibrains were flash frozen. One hemibrain was homogeneized in liquid N2 while the other was used in immunohistochemical determinations. For Western blot analyses, proteins from both hAPP(J20) and 3×Tg-AD soluble fractions were resolved by SDS/PAGE (Invitrogen, Temecula, Calif.) under reducing conditions and transferred to a nitrocellulose or PVDF membrane. The membrane was incubated in a 5% solution of non-fat milk or in 5% BSA for 1 hour at 20° C. […] Aβ40 and Aβ42 levels were measured from the soluble and insoluble fractions using a sandwich ELISA protocol as described previously (Oddo et al., 2005). Aβ40 and Aβ42 in hAPP(J20) mice were quantitated in guanidine homogenates of Tg hAPP(J20) hemibrains as described (Galvan et al., 2006) using specific ELISA assays (Invitrogen, Carlsbad, Calif.). […]

[4] = test system: phosphorylation of ribosomal protein S6 (Ser240/244), a substrate of S6 kinase 1; assay: Immunoblot of rpS6 phosphorylation in tissue lysates; format: in vivo, mouse; settings: visceral white adipose tissue; fed from 270 to about 800 days of age
Procedure: Signal intensities for each immunoblot were captured using a Kodak Image Station, which were analysed using Kodak 1D image analysis software.

[5] = Body weight of rapamycin-fed mice; format: in vivo, mouse
[6] = test system: Aβ / APP in brains of hAPP(J20) mice; assay: APP Western blots and Aβ ELISA in brain, hAPP(J20) mice; format: in vivo, mouse
Procedure: as §1
3×Tg-AD mice were sacrificed by CO2 asphyxiation. The brains were extracted and cut in-half sagitally and tissue was processed as described (Oddo et al., 2008). The hAPP(J20) mice were euthanized by isoflurane overdose. Hemibrains were flash frozen. One hemibrain was homogeneized in liquid N2 while the other was used in immunohistochemical determinations. For Western blot analyses, proteins from both hAPP(J20) and 3×Tg-AD soluble fractions were resolved by SDS/PAGE (Invitrogen, Temecula, Calif.) under reducing conditions and transferred to a nitrocellulose or PVDF membrane. The membrane was incubated in a 5% solution of non-fat milk or in 5% BSA for 1 hour at 20° C. […] Aβ40 and Aβ42 levels were measured from the soluble and insoluble fractions using a sandwich ELISA protocol as described previously (Oddo et al., 2005). Aβ40 and Aβ42 in hAPP(J20) mice were quantitated in guanidine homogenates of Tg hAPP(J20) hemibrains as described (Galvan et al., 2006) using specific ELISA assays (Invitrogen, Carlsbad, Calif.).

Structure (SMILES): O=C(/C=C/c1ccc(O)c(O)c1)OCCc1ccccc1 [CAPE, caffeic acid phenethyl ester]
- Survival compared with controls [1]: did not differ from controls

Structure (SMILES): CCOC(=O)[C@H](CCc1ccccc1)N[C@@H](C)C(=O)N1CCC[C@H]1C(=O)O [enalapril]
- Survival compared with controls [1]: did not differ from controls

Structure (SMILES): CO[C@H]1C[C@@H]2CC[C@@H](C)[C@@](O)(O2)C(=O)C(=O)N2CCCC[C@H]2C(=O)O[C@H]([C@H](C)C[C@@H]2CC[C@@H](O)[C@H](OC)C2)CC(=O)[C@H](C)/C=C(\C)[C@@H](O)[C@@H](OC)C(=O)[C@H](C)C[C@H](C)/C=C/C=C/C=C/1C [rapamycin, (3S,6R,7E,9R,10R,12R,14S,15E,17E,19E,21S,23S,26R,27R,34aS)-9,10,12,13,14,21,22,23,24,25,26,27,32,33,34,34a-hexadecahydro-9,27-dihydroxy-3-[(1R)-2-[(1S,3R,4R)-4-hydroxy-3-methoxycyclohexyl]-1-methylethyl]-10,21-dimethoxy-6,8,12,14,20,26-hexamethyl-23,27-epoxy-3H-pyrido[2,1-c][1,4]oxaazacyclohentria-contine-1,5,11,28,29 (4H,6H,31H)-pentone]
- Glucose tolerance (HET3 mice): causes glucose intolerance
- Blood brain barrier passage [2]: readily crosses the blood brain barrier
- Increase of life expectancy at 600 days ([1]; females, TJL): 45%
- Mean lifespan increase ([1]; females, TJL): 15%
- Percentage increase of age at 90th percentile versus controls ([1]; females, TJL): 17%
- % Live at the 90th percentile age of the joint distribution ([1]; females, TJL, age 1167 days): 22.9%
- Number alive at the 90th percentile age ([1]; females, TJL, age 1167 days): 11
- Number dead at the 90th percentile age ([1]; females, TJL, age 1167 days): 37
- Increase of life expectancy at 600 days ([1]; females, UM): 48%
- Mean lifespan increase ([1]; females, UM): 16%
- Percentage increase of age at 90th percentile versus controls ([1]; females, UM): 14%
- % Live at the 90th percentile age of the joint distribution ([1]; females, UM, age 1162 days): 27.1%
- Number alive at the 90th percentile age ([1]; females, UM, age 1162 days): 13
- Number dead at the 90th percentile age ([1]; females, UM, age 1162 days): 35
- Increase of life expectancy at 600 days ([1]; females, UT): 22%
- Mean lifespan increase ([1]; females, UT): 7%
- Percentage increase of age at 90th percentile versus controls ([1]; females, UT): 8%
- % Live at the 90th percentile age of the joint distribution ([1]; females, UT, age 1123 days): 14.6%
- Number alive at the 90th percentile age ([1]; females, UT, age 1123 days): 7
- Number dead at the 90th percentile age ([1]; females, UT, age 1123 days): 41
- Percentage increase of age at 90th percentile versus controls ([1]; females, all sites): 14%
- Effect size expressed as life expectancy at 600 days ([1]; females): 38%
- Effect size expressed as mean lifespan ([1]; females): 13%
- % Live at the 90th percentile age of the joint distribution ([1]; females, pooled sites): 21.5%
- Number alive at the 90th percentile age ([1]; females, pooled sites): 31
- Number dead at the 90th percentile age ([1]; females, pooled sites): 113
- % Live at the 90th percentile age of the joint distribution ([1]; females, pooled sites, listed as Rapa): 21.5%
- Increase of life expectancy at 600 days ([1]; males, TJL): 16%
- Mean lifespan increase ([1]; males, TJL): 5%
- Percentage increase of age at 90th percentile versus controls ([1]; males, TJL): 10%
- % Live at the 90th percentile age of the joint distribution ([1]; males, TJL, age 1088 days): 19.3%
- Number alive at the 90th percentile age ([1]; males, TJL, age 1088 days): 11
- Number dead at the 90th percentile age ([1]; males, TJL, age 1088 days): 46
- Increase of life expectancy at 600 days ([1]; males, UM): 23%
- Mean lifespan increase ([1]; males, UM): 8%
- Percentage increase of age at 90th percentile versus controls ([1]; males, UM): 4%
- % Live at the 90th percentile age of the joint distribution ([1]; males, UM, age 1154 days): 17.6%
- Number alive at the 90th percentile age ([1]; males, UM, age 1154 days): 9
- Number dead at the 90th percentile age ([1]; males, UM, age 1154 days): 42
- Increase of life expectancy at 600 days ([1]; males, UT): 52%
- Mean lifespan increase ([1]; males, UT): 15%
- Percentage increase of age at 90th percentile versus controls ([1]; males, UT): 16%
- % Live at the 90th percentile age of the joint distribution ([1]; males, UT, age 1112 days): 23.3%
- Number alive at the 90th percentile age ([1]; males, UT, age 1112 days): 14
- Number dead at the 90th percentile age ([1]; males, UT, age 1112 days): 48
- Percentage increase of age at 90th percentile versus controls ([1]; males, all sites): 9%
- Effect size expressed as life expectancy at 600 days ([1]; males): 28%
- Effect size expressed as mean lifespan ([1]; males): 9%
- % Live at the 90th percentile age of the joint distribution ([1]; males, pooled sites): 20.2%
- Number alive at the 90th percentile age ([1]; males, pooled sites): 34
- Number dead at the 90th percentile age ([1]; males, pooled sites): 134
- % Live at the 90th percentile age of the joint distribution ([1]; males, pooled sites, listed as Rapa): 20.2%
- Decrease of soluble Aβ42 levels [3]: 32.78±6.68%
- Reduction of levels of phosphorylated rpS6 [4]: 4-5 fold
- Body weight ([5]; high fat diet, 12 weeks of feeding): No difference
- Body weight ([5]; mouse, in vivo): No effect
- Decrease of soluble Aβ42 levels [6]: 52.35±13.14%
